Test results published in US8211885B2, “Cyclic indole-3-carboxamides, their preparation and their use as pharmaceuticals” (Sanofi-Aventis, priority 2008, dated 2012).
Read-outs that look alike come from different tables or passages of the source.

Biological target: T1, Recombinant human renin (Homo sapiens, UniProt P00797)
T1 construct: purchased Cayman 10006217
T1 sequence (P00797 67-406): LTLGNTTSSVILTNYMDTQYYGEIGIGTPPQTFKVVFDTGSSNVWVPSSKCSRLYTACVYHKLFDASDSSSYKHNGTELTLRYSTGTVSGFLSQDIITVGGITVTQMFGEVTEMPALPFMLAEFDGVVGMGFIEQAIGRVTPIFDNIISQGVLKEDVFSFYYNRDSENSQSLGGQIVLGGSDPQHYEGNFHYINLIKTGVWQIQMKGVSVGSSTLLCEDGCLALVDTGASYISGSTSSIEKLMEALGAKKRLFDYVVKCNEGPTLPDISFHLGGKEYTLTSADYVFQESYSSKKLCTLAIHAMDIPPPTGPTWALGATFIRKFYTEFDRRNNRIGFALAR
Experiment: Inhibition of renin (fluorogenic peptide substrate)
Format: biochemical
Experimental: Recombinant human renin (Cayman, no. 10006217) at a concentration of 5 nM was incubated with the test compounds at various concentrations and the synthetic substrate Dabcyl-γ-Abu-[…]EDANS (Bachem, no. M-2050; Dabcyl means the 4-(4-dimethylamino-phenylazo)-benzoyl group and EDANS means the amide with 5-[(2-aminoethyl)amino]-naphthalene-1-sulfonic acid) at a concentration of 10 μM for 2 h at room temperature in 0.05 M Tris buffer (pH 8) containing 0.1 M NaCl, 2.5 mM EDTA and 1.25 mg/ml bovine serum albumin. The increase in fluorescence, which is due to fluorescence resonance energy transfer, was recorded at an excitation wavelength of 330 nm and an emission wavelength of 485 nm in a microplate spectrofluorometer. Inhibitory concentrations IC50 were calculated from the percentage of inhibition of renin activity as a function of the concentration of the test compound.

[1] = renin 5 nM, substrate Dabcyl-γ-Abu-[…]-EDANS 10 μM, 2 h room temperature, Tris buffer pH 8, compounds tested as the obtained salt, read-out: IC50 values for inhibition of renin (fluorogenic peptide substrate)

SMILES	IC50 [nM]	IC50 [1] [nM]
CN(c1ccccc1)c1c(C(=O)N2CCNCC2)c2ccccc2n1-c1ccccc1 [Example 3, [2-(Methyl-phenyl-amino)-1-phenyl-1H-indol-3-yl]-piperazin-1-yl-methanone]	3200	
O=C(c1c(Oc2ccccc2)n(-c2ccccc2)c2ccccc12)N1CCCNCC1 [Example 5, Perhydro-1,4-diazepin-1-yl-(2-phenoxy-1-phenyl-1H-indol-3-yl)-methanone]		3400
Cc1ccc(F)cc1Oc1c(C(=O)N2CCNCC2)c2ccccc2n1C1C=CCCC1 (centres unmarked) [Example 22, [1-Cyclohex-2-enyl-2-(5-fluoro-2-methyl-phenoxy)-1H-indol-3-yl]-piperazin-1-yl-methanone]		7.2
O=C(c1c(Oc2ccccc2)n(-c2ccccc2)c2ccccc12)N1CCNC(CO)C1 (centres unmarked) [Example 24, (3-Hydroxymethyl-piperazin-1-yl)-(2-phenoxy-1-phenyl-1H-indol-3-yl)-methanone]		1600
Cc1ccc(F)cc1Oc1c(C(=O)N2CCNCC2)c2ccc(OCC(=O)O)cc2n1-c1ccccc1 [Example 30, [2-(5-Fluoro-2-methyl-phenoxy)-1-phenyl-3-(piperazine-1-carbonyl)-1H-indol-6-yloxy]-acetic acid]		130
Cc1ccccc1Sc1c(C(=O)N2CCNCC2)c2ccccc2n1-c1ccccc1 [Example 108]		71
Cc1ccccc1Cc1c(C(=O)N2CCNCC2)c2ccccc2n1-c1ccsc1 [Example 113]		230
O=C(c1c(Oc2ccccc2)n(-c2ccccc2)c2ccccc12)N1CCNCC1Cc1ccccc1 (centres unmarked) [Example 126]		4500
